Data on 6 compounds can be found in ChEMBL document CHEMBL1130651, “Synthesis of novel C7-aryl substituted pyrrolo[2,1-c][1,4]benzodiazepines (PBDs) via pro-N10-Troc protection and Suzuki coupling” (Bioorg Med Chem Lett, 1998).

The test system of one experiment is A2780. The experiment is described as follows: Compound was evaluated for cytotoxicity against A2780 cell line. In kind it is functional, cell-based. Conditions: Homo sapiens.
The next experiment concerns CH1. Kind of experiment: Compound was evaluated for cytotoxicity against CH1 cell line. The class given is functional, cell-based. Conditions: Homo sapiens.

Regarding `COc1ccc(-c2ccc3c(c2)C(=O)N2CCC[C@H]2C=N3)cc1`, the IC50 with A2780 was found to be 560 nM; in the experiment with CH1 it was 1350 nM.
In the same order, the values of `O=C1c2cc(-c3cccc([N+](=O)[O-])c3)ccc2N=C[C@@H]2CCCN12` are 34500 nM and 22500 nM.
In the same order, the values of `Cc1ccc(-c2ccc3c(c2)C(=O)N2CCC[C@H]2C=N3)cc1` are 580 nM and 1500 nM.
In the same order, the values of `O=C1c2cc(-c3ccc(F)cc3)ccc2N=C[C@@H]2CCCN12` are 660 nM and 4700 nM.
Consider `O=C1c2cc(-c3ccccc3)ccc2N=C[C@@H]2CCCN12`, for which the IC50 in the experiment with A2780 was found to be 1150 nM; in the experiment on CH1 it was 1500 nM.
Regarding `COc1ccccc1-c1ccc2c(c1)C(=O)N1CCC[C@H]1C=N2`, the IC50 with A2780 is 1180 nM; with CH1, 4800 nM.
